Measurements taken from US20180169095A1, “THE USE OF SGC STIMULATORS, SGC ACTIVATORS, ALONE AND COMBINATIONS WITH PDE5 INHIBITORS FOR THE TREATMENT OF DIGITAL ULCERS (DU) CONCOMITANT TO SYSTEMIC SCLEROSIS (SSC)” (Bayer Pharma Aktiengesellschaft, priority 2015, published 2018).
Entries after “also recorded” stand apart in the source; their conditions may differ.

System: Tsk-1 mice
Experiment: Wound healing in Tsk-1 mice (tight-skin mouse model of SSc), 4 mm punch wounds
Format: in vivo
Conditions: for Healing time relative to healthy WT control mice (in words): TSK mice, no dose given; for Healing time relative to healthy WT control mice (in words) / Wound healing in tsk-1 mice versus placebo (in words): summary statement; for Reduction of wound size / Normalization of wound healing versus placebo-treated WT mice (68%±2%) / Wound healing in tsk-1 mice versus placebo (in words): tsk-1 mice; for Reduction of wound size / Normalization of wound healing versus placebo-treated WT mice (68%±2%): 3 days after punching; for Reduction of wound size: mean±SEM; for Normalization of wound healing versus placebo-treated WT mice (68%±2%): 45 ppm in mice chow; for Wound healing in tsk-1 mice versus placebo (in words): drug in food
Procedure: The tight-skin (Tsk-1) mouse model of SSc was used to evaluate the effects of compound according to formula (27) and (3) (BAY 41-2272 and BAY 63-2521) on wound healing in mice with substantial skin fibrosis. Due to an autosomal dominant mutation namely a tandem duplication of the fibrillin-1 gene, the phenotype of tsk-1 mice is characterized by an increased hypodermal thickness (Beyer et al. 2010). Genotyping of Tsk-1 mice was performed by PCR with the following primers: mutated fibrillin-1/tsk-1 forward primer: 5′-[…]-3′, reverse primer: 5′-[…]-3′.
The effects of either placebo (=vehicle for the compounds=0.5% tylose solution), or the compound according to formula (27) or (3), (BAY 41-2272 or BAY 63-2521) were studied in Tsk-1 mice. Tsk-1 mice were anaesthetized and carefully shaved 3 days before setting the wounds for exact quantification of the wound size. In order to avoid influences on wound healing by daily handling of the animals, the bi-daily gavage treatment was replaced by drug administration in the food. Mice received either normal mice chow (placebo) or mice chow, containing 15 and 45 ppm of compound according to formula (27), (BAY 41-2272) or containing 5 ppm, 15 ppm and 45 ppm of compound according to formula (3), (BAY 63-2521), respectively. […] Treatment groups consist of at least 8 tsk-1 mice per group. Treatment started on the day of shaving to achieve steady state exposure. Three days after shaving, mice were carefully anesthetized and round wounds were punched with 4 mm in diameter. 3 days after punching, mice were euthanized and the wound size was assessed. Statistical analysis of data was done by one-way ANOVA followed by Tuckey's multiple comparison post-hoc analysis

[1] = 15 ppm in mice chow (exposure similar to 1 mg/kg BID)
[2] = 45 ppm in mice chow (exposure similar to 3 mg/kg BID)

`COC(=O)N(C)c1c(N)nc(-c2nn(Cc3ccccc3F)c3ncccc23)nc1N` [(3)] was tested, and the “Healing time relative to healthy WT control mice (in words)” value was “normalized the healing time to healthy WT control mice”, the “Reduction of wound size” value (5 ppm in mice chow (exposure similar to 0.3 mg/kg BID)) was 59%±4% and the “Reduction of wound size” value [1] was 65±3%. For the same molecule, the “Reduction of wound size” value [2] was 70%±2%, the “Normalization of wound healing versus placebo-treated WT mice (68%±2%)” value was “normalized wound healing to a similar extent as observed in placebo-treated WT mice” and the “Wound healing in tsk-1 mice versus placebo (in words)” value was “significantly and dose-dependently accelerated wound healing; also recorded: dose-dependently and significantly accelerated wound healing; also recorded: significantly and dose-dependently improved”.
With `Nc1nc(-c2nn(Cc3ccccc3F)c3ncccc23)ncc1C1CC1` [(27)] the “Healing time relative to healthy WT control mice (in words)” value was “normalized the healing time to healthy WT control mice”, the “Reduction of wound size” value [1] was 64±2% and the “Reduction of wound size” value [2] was 73±2%. For the same molecule, the “Normalization of wound healing versus placebo-treated WT mice (68%±2%)” value was “normalized wound healing to a similar extent as observed in placebo-treated WT mice” and the “Wound healing in tsk-1 mice versus placebo (in words)” value was “significantly and dose-dependently accelerated wound healing; also recorded: significantly and dose-dependently improved”.
